Measured values from patent US4470926A, “Medicaments containing thymosin alpha 1 fragments and having an immunostimulant action, and fragments of thymosin alpha 1” (priority 1980, dated 1984).
Like-named read-outs stand apart in the source and are kept apart here. Residues, ends and D or L forms follow the SMILES beside them. No end group written: not given here.

Assays:
[1] = system: human peripheral lymphocytes; format: cell-based; settings: for Optimum concentr.: concentration of optimum E-rosette stimulation after α-amanitin block; for Relative number of the E-rosettes (%): after inhibition with α-amanitin
Excerpt: The immunological test methods used were the E-rosette test according to Wara, Ammann et al. (N.Y. Acad. Sci. 249 (1975) 308 and N. Engl. J. Med. 292 (1975) 70) and the method of mixed lymphocyte culture, both methods involving additional inhibition of cellular RNS polymerase by alpha-amanitin. The E-rosette test is based on the fact that the percentage of E-rosette forming cells in peripheral human blood is a measure of the content of fully mature T-cells, which form with sheep's red blood cells characteristic aggregates which can be counted under the microscope.
For the performance of the E-rosette test, peripheral human lymphocytes are isolated by a gradient centrifugation. Their RNS polymerase is blocked by alpha-amanitin. […] This value is taken as 100% in a relative numerical scale, and after the alpha-amanitin blockage it is taken to be 0%; see Table XII.

[2] = system: human peripheral lymphocytes; format: cell-based; settings: for stimulation (+) / inhibition (-) (%) of the mixed lymphocyte culture: 1 μg fragment per ml; for (%) Stimulation of allogenic mixed culture: 1 microgram thymosin α1 per ml
Method: The test in mixed lymphocyte cultures is based on the fact that T-cells are made to proliferate by stimulation with allogenic antigens. For the performance of the test, the lymphocytes of donor A ("responder") are incubated with those of donor B ("stimulator") for 4 to 5 days. Then ^3 H-thymidin is added and the rate of proliferation is measured on the basis of the increasing radioactivity of the cell culture due to the installation of the radioactive material. Since both populations A and B might be made to proliferate, resulting in an unclear effect, population B is blocked with mitomycin C in all metabolical activities. This test is routinely used before organ transplants to determine the immunological compatibility of donor and receiver tissues.

[3] = after α-amanitin block (=0%), normal level without any addition = 100%, at optimum concentration
[4] = cell pair AB, culture blocked with 1 μg α-amanitin per ml
[5] = cell pair AB, not blocked with amanitin, culture without addition = 0%
[6] = cell pair BA, culture blocked with 1 μg α-amanitin per ml
[7] = cell pair CD, culture blocked with 1 μg α-amanitin per ml
[8] = cell pair CD, not blocked with amanitin, culture without addition = 0%
[9] = cell pair DC, culture blocked with 1 μg α-amanitin per ml
[10] = cell pair DC, not blocked with amanitin, culture without addition = 0%
[11] = cell pair BA, not blocked with amanitin, culture without addition = 0%

Row | Compound | activity in the E-rosette test (in words) [1] | E-rosette number (%) [1, 3] | Optimum concentr. [1] | action in the mixed lymphocyte culture (in words) [2] | stimulation (+) / inhibition (-) (%) of the mixed lymphocyte culture [2, 4] | stimulation (+) / inhibition (-) (%) of the mixed lymphocyte culture [2, 5] | stimulation (+) / inhibition (-) (%) of the mixed lymphocyte culture [2, 6] | stimulation (+) / inhibition (-) (%) of the mixed lymphocyte culture [2, 7] | stimulation (+) / inhibition (-) (%) of the mixed lymphocyte culture [2, 8] | stimulation (+) / inhibition (-) (%) of the mixed lymphocyte culture [2, 9] | stimulation (+) / inhibition (-) (%) of the mixed lymphocyte culture [2, 10] | other results
1 | KEVVE [IV] | activity in the E-rosette test only at a relatively high dosage | 45% | 83 µM | very considerable stimulation of T-cell proliferation | -87% | -53% | -97% | +35% | +37% | +100% | +2% | 
2 | C[C@H](NC(=O)[C@@H](N)CCC(=O)O)C(=O)N[C@@H](CCC(=O)O)C(=O)N[C@@H](CC(N)=O)C(=O)O [V] (H-EAEN-OH) | activity in the E-rosette test only at a relatively high dosage | 42% | 113 µM | very considerable stimulation of T-cell proliferation | -47% | +223% | -94% |  | +45% |  | +37% | 
3 | TSSEIT [II] |  | 29% | 80 µM |  | -11% |  | -80% | -98% | -53% | +20% | +30% | stimulation (+) / inhibition (-) (%) of the mixed lymphocyte culture [2, 11]: -18%
4 | Ac-SDAAVDTSSEIT [IX] | more strongly stimulated | 40% | 4 µM | surprisingly pronounced inhibiting action | -30% | -74% | -78% | +63% | -63% | +60% | -77% | 
5 | TKDLKEKKEVVEEAEN [VII] | more strongly stimulated |  | 6 µM |  |  |  |  |  |  |  |  | E-rosette number (%) [1]: 41%
6 | KEVVEEAEN [VI] |  | 16% | 10 µM |  | +279% | +153% | -96% | +83% | +57% | +160% |  | 
7 | Synthetic thymosin α1: parent substance, totally synthetic thymosin α1, 28 amino acids, analytically pure (SDAAVDTSSEITTKDLKEKKEVVEEAEN; ends and bridges not checked; UniProt P06454 2-29, looked up) [reference compound] |  | 100% | 1.6 µM |  |  |  |  |  |  |  |  | Relative number of the E-rosettes (%) ([1]; 0.25 μg per culture): 39%; Relative number of the E-rosettes (%) ([1]; 0.50 μg per culture): 100%; Relative number of the E-rosettes (%) ([1]; 1.00 μg per culture): 64%; Relative number of the E-rosettes (%) ([1]; 2.50 μg per culture): 57%; Relative number of the E-rosettes (%) ([1]; 5.00 μg per culture): 33%; (%) Stimulation of allogenic mixed culture ([2]; cell pair AB, (a) culture not inhibited, without addition = 0%): +20%; (%) Stimulation of allogenic mixed culture ([2]; cell pair AB, (b) culture inhibited with 1 microgram amanitin per ml): +86%; (%) Stimulation of allogenic mixed culture ([2]; cell pair AD, (a) culture not inhibited): +4%; (%) Stimulation of allogenic mixed culture ([2]; cell pair AD, (b) culture inhibited with 1 microgram amanitin per ml): +37%; (%) Stimulation of allogenic mixed culture ([2]; cell pair BA, (a) culture not inhibited): +27%; (%) Stimulation of allogenic mixed culture ([2]; cell pair BA, (b) culture inhibited with 1 microgram amanitin per ml): +47%; (%) Stimulation of allogenic mixed culture ([2]; cell pair BD, (a) culture not inhibited): +45%; (%) Stimulation of allogenic mixed culture ([2]; cell pair BD, (b) culture inhibited with 1 microgram amanitin per ml): +51%; (%) Stimulation of allogenic mixed culture ([2]; cell pair DA, (a) culture not inhibited): +44%; (%) Stimulation of allogenic mixed culture ([2]; cell pair DB, (a) culture not inhibited): +27%; (%) Stimulation of allogenic mixed culture ([2]; cell pair DB, (b) culture inhibited with 1 microgram amanitin per ml): +1550%
8 | KDAAVD [Ia] | especially active | 93% | 16 µM | surprisingly pronounced inhibiting action | -10% | -8% |  | -53% | -73% | -7% | -31% | stimulation (+) / inhibition (-) (%) of the mixed lymphocyte culture [2, 11]: -15%
